From patent publication US11325907B2, “Crystal form of 1H-imidazo[4,5-b]pyridine-2(3H)-one compound and preparation process therefor” (MEDSHINE DISCOVERY INC., priority 2018, dated 2022)

Experiment: Solid stability test at high temperature, high humidity and strong light
Type: physicochemical
Description: Content Determination Method
Device: Agilent 1260 High Performance Liquid Chromatograph with DAD detector or Shimadzu LC-20A High Performance Liquid Chromatograph with PDA detector
Detailed Chromatographic parameters are as follows:
Chromatographic column: Agilent Eclipse plus C18 (4.6 mm×150 mm, 3.5 μm)
Column temperature: 40° C.
Detecting wavelength: 230 nm
Mobile Phase A: 0.04% trifluoroacetic acid aqueous solution (V/V)
Mobile Phase B: acetonitrile
Diluent: acetonitrile: purified water=3:1 (v/v)
Probe Wash: acetonitrile: purified water=3:1 (v/v)
Gradient elution procedure: […]
The samples placed under high temperature and high humidity conditions were placed in a desiccator for inspection, and the samples were taken on the 5th, 10th and 30th days for testing, and the test results were compared with the initial test results of day 0. The samples placed under strong light were covered with a transparent lid with a sealing film, and the samples were taken on the 5th and 10th days for testing, and the test results were compared with the initial test results on day 0.

[1] = High humidity (Room Temperature/Relative Humidity 92.5%, Open), Day 5
[2] = High humidity (Room Temperature/Relative Humidity 92.5%, Open), Day 10
[3] = High humidity (Room Temperature/Relative Humidity 92.5%, Open), Day 30
[4] = High temperature (60° C., Open), Day 5
[5] = High temperature (60° C., Open), Day 10
[6] = High temperature (60° C., Open), Day 30
[7] = Strong light (4500 ± 500 lux, 90 μw/cm^2, Sealed), Day 5
[8] = Strong light (4500 ± 500 lux, 90 μw/cm^2, Sealed), Day 10

## CCOc1cc([C@@H](CS(C)(=O)=O)n2c(=O)[nH]c3c(C)c(-c4ccccc4F)cnc32)ccc1OC [Crystal Form A of Compound 1]
Day 0 (initial)
  Appearance: White
  Content: 99.5%
  Total Impurity: 0.11%
[1]
  Appearance: White
  Content: 99.0%
  Total Impurity: 0.16%
[2]
  Appearance: White
  Content: 98.9%
  Total Impurity: 0.16%
[3]
  Appearance: White
  Content: 99.0%
  Total Impurity: 0.16%
[4]
  Appearance: White
  Content: 99.2%
  Total Impurity: 0.16%
[5]
  Appearance: White
  Content: 98.8%
  Total Impurity: 0.16%
[6]
  Appearance: White
  Content: 99.0%
  Total Impurity: 0.16%
[7]
  Appearance: White
  Content: 98.8%
  Total Impurity: 0.11%
[8]
  Appearance: White
  Content: 98.6%
  Total Impurity: 0.11%
High temperature, high humidity or strong light conditions
  Solid stability (conclusion): good stability
